Source: ChEMBL document CHEMBL1201862, “PubChem BioAssay data set” (2004)
The source made the active and inactive calls.

Columns and labels:
[1] = molecular target: T1, Ubiquitin-conjugating enzyme E2 N (Homo sapiens, UniProt P61088); assay type: functional
T1 sequence (P61088 whole entry): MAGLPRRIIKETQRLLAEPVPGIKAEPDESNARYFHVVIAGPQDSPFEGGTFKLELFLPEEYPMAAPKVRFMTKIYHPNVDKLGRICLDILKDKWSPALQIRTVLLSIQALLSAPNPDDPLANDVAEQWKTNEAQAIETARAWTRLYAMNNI

[2] = molecular target: T2, Bcl-2-related protein A1 (Mus musculus, UniProt Q07440); assay type: functional;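 also: confirmatory dose–response counterscreen on Bfl-1, used to check hits from a UBC13 polyubiquitin inhibitor campaign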
T2 sequence (Q07440 whole entry): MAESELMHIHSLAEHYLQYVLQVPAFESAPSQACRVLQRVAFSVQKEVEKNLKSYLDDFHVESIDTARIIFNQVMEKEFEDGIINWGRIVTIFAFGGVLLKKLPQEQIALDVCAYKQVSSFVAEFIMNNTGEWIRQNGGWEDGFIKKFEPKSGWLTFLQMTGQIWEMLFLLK

[3] = molecular target: T1, Ubiquitin-conjugating enzyme E2 N; assay type: functional; remark: listed apart in the source
[4] = molecular target: T3, Cytochrome P450 1A2 (Homo sapiens, UniProt P05177);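 also: PubChem cytochrome P450 panel assay, CYP1A2 panel member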
T3 sequence (P05177 whole entry): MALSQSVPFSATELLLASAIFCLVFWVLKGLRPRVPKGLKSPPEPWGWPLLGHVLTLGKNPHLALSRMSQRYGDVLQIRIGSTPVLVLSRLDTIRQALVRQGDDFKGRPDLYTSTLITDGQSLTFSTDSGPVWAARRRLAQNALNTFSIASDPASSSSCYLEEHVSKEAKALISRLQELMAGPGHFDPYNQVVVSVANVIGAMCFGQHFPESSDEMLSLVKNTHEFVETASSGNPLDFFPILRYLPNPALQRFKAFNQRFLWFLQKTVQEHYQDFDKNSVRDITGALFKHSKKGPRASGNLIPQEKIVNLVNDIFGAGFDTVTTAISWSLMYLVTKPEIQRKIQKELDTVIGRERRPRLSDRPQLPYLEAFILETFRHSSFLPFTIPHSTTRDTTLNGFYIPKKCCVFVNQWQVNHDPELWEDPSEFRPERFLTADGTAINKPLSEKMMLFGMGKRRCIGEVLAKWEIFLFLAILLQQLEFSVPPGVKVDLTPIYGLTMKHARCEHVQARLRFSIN

[5] = molecular target: Cytochrome P450 3A4 (Homo sapiens, UniProt P08684);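 also: CYP3A4 tested as one member of a cytochrome P450 panel screen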
[6] = molecular target: Cytochrome P450 2C9 (Homo sapiens, UniProt P11712)
[7] = molecular target: Cytochrome P450 2C19 (Homo sapiens, UniProt P33261); test: Cytochrome panel assay with activity outcomes. Panel member name: p450-cyp2c19 Compounds with AC50 equal or less than 10 uM are considered active; assay type: functional; conditions: read-out: AC50
[8] = molecular target: Hexokinase-1 (Homo sapiens, UniProt P19367); test: HK1 enzyme activation by HKDC1 hits – biochemical, selectivity assay for HKDC1 activator project, dose response (AID 504762); assay type: functional
[9] = molecular target: 26S proteasome non-ATPase regulatory subunit 14 (Homo sapiens, UniProt O00487); test: inhibition of proteasome subunit RPN11 – biochemical, fluorescence polarization, uHTS hits, confirmation (AID 602368); assay type: functional
[10] = molecular target: Hexokinase HKDC1 (Homo sapiens, UniProt Q2TB90); test: activation of HKDC1 glucose phosphorylation – biochemical, W721R variant, dose response (AID 504730); assay type: functional
Chain of Hexokinase HKDC1 (Q2TB90 whole entry): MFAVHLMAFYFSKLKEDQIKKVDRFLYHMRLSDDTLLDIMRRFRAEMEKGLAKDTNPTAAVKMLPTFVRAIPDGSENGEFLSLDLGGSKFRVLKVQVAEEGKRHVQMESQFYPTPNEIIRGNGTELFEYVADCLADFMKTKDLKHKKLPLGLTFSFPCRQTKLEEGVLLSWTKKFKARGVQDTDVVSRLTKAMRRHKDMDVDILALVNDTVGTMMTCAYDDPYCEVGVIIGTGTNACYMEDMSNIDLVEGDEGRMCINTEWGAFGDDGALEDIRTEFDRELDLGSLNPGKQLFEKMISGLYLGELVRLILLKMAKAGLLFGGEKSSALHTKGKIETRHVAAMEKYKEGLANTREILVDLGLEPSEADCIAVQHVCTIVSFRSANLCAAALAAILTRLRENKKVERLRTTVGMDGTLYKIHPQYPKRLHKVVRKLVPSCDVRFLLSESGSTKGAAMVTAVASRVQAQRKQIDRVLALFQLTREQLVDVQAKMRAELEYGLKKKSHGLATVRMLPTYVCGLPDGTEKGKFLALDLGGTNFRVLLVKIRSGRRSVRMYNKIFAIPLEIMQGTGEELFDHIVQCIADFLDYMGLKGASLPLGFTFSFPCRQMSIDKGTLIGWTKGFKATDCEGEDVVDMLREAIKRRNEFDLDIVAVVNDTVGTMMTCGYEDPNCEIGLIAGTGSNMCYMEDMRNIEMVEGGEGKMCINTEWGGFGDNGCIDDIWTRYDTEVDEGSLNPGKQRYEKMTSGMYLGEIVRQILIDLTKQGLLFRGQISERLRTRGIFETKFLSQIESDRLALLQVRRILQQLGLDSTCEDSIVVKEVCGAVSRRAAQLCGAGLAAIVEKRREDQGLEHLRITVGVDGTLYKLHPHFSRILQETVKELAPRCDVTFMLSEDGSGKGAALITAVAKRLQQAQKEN

[11] = molecular target: 72 kDa type IV collagenase (Homo sapiens, UniProt P08253); test: Dose Response validation of uHTS RPN11 inhibitor hits using a MMP-2 Fluorescence assay.; assay type: functional
[12] = molecular target: Prothrombin (Bos taurus, UniProt P00735); test: thrombin protease inhibitors – biochemical, fluorescence polarization, uHTS hits, dose response (AID 602369); assay type: functional
[13] = molecular target: Peroxisome proliferator-activated receptor gamma/Nuclear receptor coactivator 2 (Homo sapiens, UniProt P37231); test: (§1) TR-FRET dose response biochemical High Throughput Screening assay for agonists of the steroid receptor coactivator 2 (SRC-2) recruitment by the peroxisome proliferator-activated receptor gamma (PPAR gamma): non-selective agonists. [Related pubchem assays: 1297, 1032 ]; assay type: functional
Chain of Peroxisome proliferator-activated receptor gamma/Nuclear receptor coactivator 2 (P37231 whole entry): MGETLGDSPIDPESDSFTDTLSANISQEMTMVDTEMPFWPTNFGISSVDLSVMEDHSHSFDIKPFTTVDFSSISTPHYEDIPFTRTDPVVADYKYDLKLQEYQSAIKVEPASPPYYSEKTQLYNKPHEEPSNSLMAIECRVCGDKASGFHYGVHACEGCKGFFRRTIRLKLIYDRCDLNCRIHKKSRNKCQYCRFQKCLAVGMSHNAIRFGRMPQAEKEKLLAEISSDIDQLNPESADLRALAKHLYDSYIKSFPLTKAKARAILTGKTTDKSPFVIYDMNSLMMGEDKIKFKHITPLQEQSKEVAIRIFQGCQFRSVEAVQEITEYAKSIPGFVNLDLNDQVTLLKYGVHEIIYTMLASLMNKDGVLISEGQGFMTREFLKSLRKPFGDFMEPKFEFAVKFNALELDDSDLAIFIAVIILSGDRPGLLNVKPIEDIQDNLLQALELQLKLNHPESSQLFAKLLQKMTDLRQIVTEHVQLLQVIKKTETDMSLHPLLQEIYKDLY
Chain of Peroxisome proliferator-activated receptor gamma/Nuclear receptor coactivator 2 (Q15596 whole entry, further chain): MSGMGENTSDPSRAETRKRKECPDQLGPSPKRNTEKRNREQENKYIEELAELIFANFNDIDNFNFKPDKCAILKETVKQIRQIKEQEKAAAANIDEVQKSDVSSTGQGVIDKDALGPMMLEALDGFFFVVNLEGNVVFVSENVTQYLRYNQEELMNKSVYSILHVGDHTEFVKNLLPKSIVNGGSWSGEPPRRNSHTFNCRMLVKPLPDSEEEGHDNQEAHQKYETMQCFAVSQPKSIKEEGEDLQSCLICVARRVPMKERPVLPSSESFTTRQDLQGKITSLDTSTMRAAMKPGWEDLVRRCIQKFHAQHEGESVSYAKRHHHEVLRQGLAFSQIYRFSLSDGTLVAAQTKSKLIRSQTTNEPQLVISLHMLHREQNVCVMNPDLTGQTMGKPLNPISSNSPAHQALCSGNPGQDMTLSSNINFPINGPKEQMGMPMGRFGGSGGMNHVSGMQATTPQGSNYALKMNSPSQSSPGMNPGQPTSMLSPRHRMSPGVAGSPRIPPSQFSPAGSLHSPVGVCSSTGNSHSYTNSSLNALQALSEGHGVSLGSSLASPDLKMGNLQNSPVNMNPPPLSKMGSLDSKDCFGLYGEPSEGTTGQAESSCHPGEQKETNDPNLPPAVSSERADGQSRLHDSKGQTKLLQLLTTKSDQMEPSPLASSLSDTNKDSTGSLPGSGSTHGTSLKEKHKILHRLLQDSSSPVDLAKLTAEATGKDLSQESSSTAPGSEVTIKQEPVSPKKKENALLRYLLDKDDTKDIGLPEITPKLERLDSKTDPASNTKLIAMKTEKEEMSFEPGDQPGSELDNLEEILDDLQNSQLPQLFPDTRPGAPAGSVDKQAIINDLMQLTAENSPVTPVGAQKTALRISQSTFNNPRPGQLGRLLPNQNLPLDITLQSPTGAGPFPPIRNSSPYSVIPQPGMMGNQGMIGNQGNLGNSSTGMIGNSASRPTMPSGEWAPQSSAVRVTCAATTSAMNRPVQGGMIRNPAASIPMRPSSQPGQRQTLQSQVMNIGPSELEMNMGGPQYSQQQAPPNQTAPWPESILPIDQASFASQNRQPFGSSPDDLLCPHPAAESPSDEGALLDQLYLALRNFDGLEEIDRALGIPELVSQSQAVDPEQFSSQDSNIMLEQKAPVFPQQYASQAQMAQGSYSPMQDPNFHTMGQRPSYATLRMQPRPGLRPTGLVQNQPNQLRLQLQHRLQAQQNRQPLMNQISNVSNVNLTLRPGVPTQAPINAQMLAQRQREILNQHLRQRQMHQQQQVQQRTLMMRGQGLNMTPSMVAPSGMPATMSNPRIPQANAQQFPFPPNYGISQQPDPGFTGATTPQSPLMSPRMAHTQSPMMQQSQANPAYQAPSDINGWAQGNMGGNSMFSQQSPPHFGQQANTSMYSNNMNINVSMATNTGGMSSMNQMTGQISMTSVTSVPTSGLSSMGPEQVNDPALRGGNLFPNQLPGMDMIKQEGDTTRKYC

[14] = molecular target: Peroxisome proliferator-activated receptor gamma/Nuclear receptor coactivator 1 (Homo sapiens, UniProt P37231); test: as §1, with “1 (SRC-1)” for “2 (SRC-2)”, “assays (depositor defined):AID1300, AID1808, AID504735, AID631]” for “assays: 1297, 1032 ]”; assay type: protein assay
[15] = molecular target: Peroxisome proliferator-activated receptor gamma/Nuclear receptor coactivator 3 (Homo sapiens, UniProt P37231); test: as §1, with “3 (SRC-3)” for “2 (SRC-2)”, “1301 (Confirmation screen.), 1048 (Primary screen.)]” for “1297, 1032 ]”; assay type: functional
Chain of Peroxisome proliferator-activated receptor gamma/Nuclear receptor coactivator 3 (P37231 whole entry): as the sequence (P37231 whole entry) above
Chain of Peroxisome proliferator-activated receptor gamma/Nuclear receptor coactivator 3 (Q9Y6Q9 whole entry, further chain): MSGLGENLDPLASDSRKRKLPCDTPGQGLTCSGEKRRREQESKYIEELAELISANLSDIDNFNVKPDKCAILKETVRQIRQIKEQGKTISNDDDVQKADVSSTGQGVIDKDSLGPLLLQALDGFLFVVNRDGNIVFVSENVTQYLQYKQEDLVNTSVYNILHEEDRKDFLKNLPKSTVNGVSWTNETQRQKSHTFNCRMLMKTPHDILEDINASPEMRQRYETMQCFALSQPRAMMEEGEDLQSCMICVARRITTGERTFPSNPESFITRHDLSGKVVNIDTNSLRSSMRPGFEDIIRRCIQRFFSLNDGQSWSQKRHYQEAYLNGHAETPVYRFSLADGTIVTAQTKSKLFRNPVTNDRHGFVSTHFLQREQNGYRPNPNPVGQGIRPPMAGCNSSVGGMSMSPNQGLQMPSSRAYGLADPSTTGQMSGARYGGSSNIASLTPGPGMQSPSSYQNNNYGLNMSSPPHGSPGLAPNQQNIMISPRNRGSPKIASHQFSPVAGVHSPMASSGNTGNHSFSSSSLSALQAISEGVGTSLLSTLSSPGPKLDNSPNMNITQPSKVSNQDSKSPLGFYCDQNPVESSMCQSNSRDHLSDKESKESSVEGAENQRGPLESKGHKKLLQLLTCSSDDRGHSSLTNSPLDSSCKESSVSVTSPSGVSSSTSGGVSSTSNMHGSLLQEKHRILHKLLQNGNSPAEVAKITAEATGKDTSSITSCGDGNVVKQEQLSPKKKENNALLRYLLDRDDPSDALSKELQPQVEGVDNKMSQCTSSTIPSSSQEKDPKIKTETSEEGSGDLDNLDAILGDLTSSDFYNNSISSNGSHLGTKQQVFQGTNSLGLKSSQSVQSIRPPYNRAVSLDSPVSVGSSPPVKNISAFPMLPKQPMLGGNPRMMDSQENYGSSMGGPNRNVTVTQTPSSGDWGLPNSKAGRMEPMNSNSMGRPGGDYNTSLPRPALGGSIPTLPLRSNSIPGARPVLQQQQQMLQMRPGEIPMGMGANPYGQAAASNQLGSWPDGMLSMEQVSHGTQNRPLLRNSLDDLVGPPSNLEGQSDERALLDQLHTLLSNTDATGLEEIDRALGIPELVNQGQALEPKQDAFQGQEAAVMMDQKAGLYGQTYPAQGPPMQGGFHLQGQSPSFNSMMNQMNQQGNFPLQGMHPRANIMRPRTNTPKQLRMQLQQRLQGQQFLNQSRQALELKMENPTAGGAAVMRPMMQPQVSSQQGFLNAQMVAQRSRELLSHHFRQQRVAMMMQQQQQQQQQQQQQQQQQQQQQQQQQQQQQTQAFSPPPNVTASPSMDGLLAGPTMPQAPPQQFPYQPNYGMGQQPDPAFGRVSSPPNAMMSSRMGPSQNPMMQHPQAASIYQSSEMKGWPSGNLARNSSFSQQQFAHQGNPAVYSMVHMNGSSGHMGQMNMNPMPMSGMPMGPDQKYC

[16] = HEK-293T cell viability reduction – luminescence, B-cell screen hits, cytotoxicity control for BCR NF-kB inhibitor project, dose response (AID 489021); assay type: functional, cell-based;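 also: HEK-293T cells carrying an NF-kB luciferase reporter; cells exposed to compound for about 14 hours before viability readout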
[17] = reduction of Shn3 3'UTR-driven luciferase in osteoblasts – cell-based, Clone20 osteoblasts, firefly luciferase, cherry-picked, dose response (AID 624132); assay type: functional;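 also: firefly luciferase luminescence from reporter carrying the Shn3 3'UTR in osteoblasts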
[18] = Vero E6 cell cytotoxicity, dose response, cytotoxicity control for non-replicating M. tuberculosis project, secondary assay (AID 492998); assay type: functional, VeroE6; conditions: Vero C1008
[19] = molecular target: FAD-linked sulfhydryl oxidase ALR (Homo sapiens, UniProt P55789); test: ALR-catalysed DTT oxidation blockers – biochemical, H2O2 detection, luminescence, cherry-pick, dose response (AID 493248)
Chain of FAD-linked sulfhydryl oxidase ALR (P55789 whole entry): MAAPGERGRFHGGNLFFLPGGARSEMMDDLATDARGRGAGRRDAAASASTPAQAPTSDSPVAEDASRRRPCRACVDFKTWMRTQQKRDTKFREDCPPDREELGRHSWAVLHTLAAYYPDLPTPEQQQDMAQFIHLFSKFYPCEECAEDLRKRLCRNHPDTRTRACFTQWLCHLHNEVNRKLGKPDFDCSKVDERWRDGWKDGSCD

[20] = molecular target: Paired box protein Pax-8 (Homo sapiens, UniProt Q06710); test: PAX8 transcriptional activity inhibition in RMG-I – RMG-I cells, luciferase, cherry-pick, dose response (AID 687027); assay type: functional, cell-based;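 also: luciferase reporter driven by Pax8 target thyroperoxidase promoter measured by SteadyGlo luminescence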
[21] = tested on: A-375; test: proliferation inhibition in MITF-low A375 cells – cell-based, cherry-pick samples, set 2, counter-screen for MITF modulator project, dose response (AID 540335); assay type: functional; conditions: Homo sapiens
[22] = NIH-3T3 fibroblast cytotoxicity, dose response, cytotoxicity control, cell-based, fluorescence, Alamar Blue, secondary assay (AID 2327); assay type: functional;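 also: NIH-3T3 mouse fibroblasts cultured with fluconazole at 8 µg/mL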
[23] = molecular target: T4, Microphthalmia-associated transcription factor (Homo sapiens, UniProt O75030); test: reducers of TRPM1 reporter luminescence, concentration series – cell-based, SK-MEL-5, cherry-picked, set 3, MITF inhibitor project, dose response (AID 493073); assay type: functional;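 also: SK-MEL-5 melanoma cells with luciferase driven by the MITF target TRPM1 promoter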
T4 sequence (O75030 whole entry): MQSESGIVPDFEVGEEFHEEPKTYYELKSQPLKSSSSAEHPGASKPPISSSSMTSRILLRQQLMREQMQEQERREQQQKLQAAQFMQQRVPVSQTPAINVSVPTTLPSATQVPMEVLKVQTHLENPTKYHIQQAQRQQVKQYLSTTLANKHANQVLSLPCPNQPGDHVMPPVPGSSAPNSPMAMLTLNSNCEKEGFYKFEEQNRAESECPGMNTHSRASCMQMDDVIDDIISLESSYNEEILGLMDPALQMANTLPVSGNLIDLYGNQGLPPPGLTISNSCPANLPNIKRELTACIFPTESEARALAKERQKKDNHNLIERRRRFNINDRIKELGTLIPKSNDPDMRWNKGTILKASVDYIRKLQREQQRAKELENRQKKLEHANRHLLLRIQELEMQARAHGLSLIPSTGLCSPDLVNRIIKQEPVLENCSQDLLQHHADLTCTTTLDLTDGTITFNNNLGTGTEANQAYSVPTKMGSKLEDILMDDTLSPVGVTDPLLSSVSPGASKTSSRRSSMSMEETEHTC

[24] = tested on: INS1; test: INS-1E survival protection against cytokine death – cell-based, luminescence, retest, dose response (AID 449756); assay type: functional; conditions: Rattus norvegicus;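 also: cell death triggered by IL-1 beta plus TNF-alpha plus IFN-gamma mixture; protective hits raise ATP signal compared with cytokine alone wells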
[25] = HepG2 cell cytotoxicity, dose response, cytotoxicity control for non-replicating M. tuberculosis project (AID 489018); assay type: functional; conditions: Mycobacterium tuberculosis
[26] = fluconazole-exposed Candida albicans growth modulators – fluorescence, retest, confirmation (AID 2467); assay type: functional, cell-based
[27] = THP-1 cell cytotoxicity, dose response, cytotoxicity control for non-replicating M. tuberculosis project (AID 489025); assay type: functional
[28] = non-specific 3'UTR reporter inhibition in Clone20-Shn3RL – cell-based, Renilla luciferase, cherry-picked, counter-screen for Shn3 inhibitor project, dose response (AID 624133); assay type: functional
[29] = viability of PTEN-deleted HCT116 cells – cell-based, HCT116 PTEN knockout, dose response (AID 1047); assay type: functional;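 also: HCT116 colon tumor cells with PTEN knocked out; cells exposed to compound for 60 hours before readout; potency for loss of cell viability measured by luminescence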
[30] = loss of viability in HepG2 cells – cell-based, CellTiter-Glo, cherry-picked, cytotoxicity control for Shn3 inhibitor project, dose response (AID 624134); assay type: functional
[31] = cells; assay type: functional
[32] = viability of HCT116 lacking mutant beta-catenin – cell-based, human colon tumor, dose response (AID 1045); assay type: functional;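 also: HCT116 colon tumor cells with beta catenin knocked out; cells exposed to compound for 60 hours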

Compound: COCCNc1nc2c(-c3cccc(C(F)(F)F)c3)nnn2c2ccccc12
- IC50 [1]: > 20 µM (inactive)
- IC50 [2]: > 20 µM (inactive)
- IC50 [3]: 10.3 µM (active)

Compound: Cc1cnc(CNc2cc(-c3ccccc3C(F)(F)F)ncn2)cn1
- AC50 [4]: 25.1 µM (inconclusive)
- AC50 [5]: inconclusive
- AC50 [6]: inconclusive
- AC50 [7]: 39.8 µM (inconclusive)

Compound: COc1ccc(-c2[nH]c(-c3ccc(SC)cc3)nc2SCC(=O)Nc2nccs2)cc1
- EC50 [8]: 16.3 µM (active)
- IC50 [9]: 19.6 µM (active)
- EC50 [10]: 10.9 µM (active)
- IC50 [11]: > 100 µM (inactive)
- IC50 [12]: 49.9 µM (active)

Compound: CCOC(=O)CSc1cc(=O)n(CC)c2ccccc12
- EC50 [13]: > 79.4 µM (not active)
- EC50 [14]: > 79.4 µM (inactive)
- EC50 [15]: > 79.4 µM (not active)

Compound: CCN1CCN(C(=O)CSc2cc(=O)n(CC)c3ccccc23)CC1
- EC50 [13]: > 79.4 µM (not active)
- EC50 [14]: > 79.4 µM (inactive)
- EC50 [15]: > 79.4 µM (not active)
- IC50 [3]: > 20 µM (inactive)
- IC50 [16]: > 80 µM (inactive)

Compound: O=C(c1ccccc1)C(CN1CCCC1)c1ccccc1 (stereo unspecified)
- AC50 [17]: 10.7 µM (active)
- CC50 [18]: 9.26 µM (active)
- AC50 [19]: 3.73 µM (active)
- AC50 [20]: 4.88 µM (active)
- AC50 [21]: 25.2 µM (active)
- EC50 [22]: > 160 µM (inactive)
- AC50 [23]: 5.33 µM (active)
- AC50 [24]: 4.07 µM (active)
- CC50 [25]: 14.7 µM (active)
- EC50 [26]: 0.292 µM (active)
- CC50 [27]: 9.86 µM (active)
- AC50 [28]: 6.34 µM (active)
- EC50 [29]: 2.82 µM (active)
- AC50 [30]: 17.4 µM (active)
- IC50 [31]: 8.41 µM (active)
- EC50 [32]: 1.88 µM (active)
